Source: patent US20110086759A1, “CHEMICAL COMPOUNDS” (SYNGENTA CROP PROTECTION, INC., priority 2007, published 2011)

Legend:
Assay type in all cases: in vivo
[1] = system: Alopecurus myosuroides (ALOMY); test: Post-emergence biological efficacy, glasshouse pot test; conditions: 312 h, Rate 1,000 g/ha, post-emergence spray, evaluated after 13 days (100=total damage to plant; 0=no damage to plant), read-out: Percentage damage caused to weed species, post-emergence, ALOMY
Outline: (§1)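 Pot-grown weeds were sprayed 8 days after sowing with test compound in acetone/water (50:50) with 0.5% Tween 20 at 1000 or 250 g/ha. Glasshouse at 24/16° C day/night, 14 h light, 65% humidity. Damage scored 0-100 (100 = total damage) after 13 days.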

[2] = system: Ipomea hederaceae (IPOHE); test: as above; conditions: Ipomoea hederacea, 312 h; Rate 1,000 g/ha; post-emergence spray; evaluated after 13 days (100=total damage to plant; 0=no damage to plant); read-out: Percentage damage caused to weed species, post-emergence, IPOHE
Outline: as §1

Setaria faberi (SETFA) [3] = test: as above; conditions: 312 h, Rate 1,000 g/ha, post-emergence spray, evaluated after 13 days (100=total damage to plant; 0=no damage to plant), read-out: Percentage damage caused to weed species, post-emergence, SETFA
Outline: as §1

Solanum nigrum (SOLNI) [4] = test: as above; conditions: 312 h, Rate 1,000 g/ha, post-emergence spray, evaluated after 13 days (100=total damage to plant; 0=no damage to plant), read-out: Percentage damage caused to weed species, post-emergence, SOLNI
Outline: as §1

[5] = system: Echinochloa crus-galli (ECHCG); test: as above; conditions: 312 h, Rate 1,000 g/ha, post-emergence spray, evaluated after 13 days (100=total damage to plant; 0=no damage to plant), read-out: Percentage damage caused to weed species, post-emergence, ECHCG
Outline: as §1

[6] = system: Amaranthus retoflexus (AMARE); test: as above; conditions: Amaranthus retroflexus, 312 h; Rate 1,000 g/ha; post-emergence spray; evaluated after 13 days (100=total damage to plant; 0=no damage to plant); read-out: Percentage damage caused to weed species, post-emergence, AMARE
Outline: as §1

[7] = system: Alopecurus myosuroides (ALOMY); test: Pre-emergence biological efficacy, glasshouse pot test; conditions: 312 h, pre-emergence, rate 1,000 g/ha, evaluated after 13 days (100=total damage to plant; 0=no damage), read-out: Percentage damage caused to weed species, ALOMY
Outline: (§2)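 Visual phytotoxicity (0 no damage, 100 total damage) assessed 13 d after treatment. Soil-sown pots sprayed one day post-sowing; dose 1000 or 250 g/ha; formulation in acetone/water 50:50, 0.5% Tween 20.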

[8] = system: Ipomea hederaceae (IPOHE); test: as above; conditions: Ipomoea hederacea, 312 h; pre-emergence, rate 1,000 g/ha, evaluated after 13 days (100=total damage to plant; 0=no damage); read-out: Percentage damage caused to weed species, IPOHE
Outline: as §2

Setaria faberi (SETFA) [9] = test: as above; conditions: 312 h, pre-emergence, rate 1,000 g/ha, evaluated after 13 days (100=total damage to plant; 0=no damage), read-out: Percentage damage caused to weed species, SETFA
Outline: as §2

Solanum nigrum (SOLNI) [10] = test: as above; conditions: 312 h, pre-emergence, rate 1,000 g/ha, evaluated after 13 days (100=total damage to plant; 0=no damage), read-out: Percentage damage caused to weed species, SOLNI
Outline: as §2

[11] = system: Echinochloa crus-galli (ECHCG); test: as above; conditions: 312 h, pre-emergence, rate 1,000 g/ha, evaluated after 13 days (100=total damage to plant; 0=no damage), read-out: Percentage damage caused to weed species, ECHCG
Outline: as §2

[12] = system: Amaranthus retoflexus (AMARE); test: as above; conditions: Amaranthus retroflexus, 312 h; pre-emergence, rate 1,000 g/ha, evaluated after 13 days (100=total damage to plant; 0=no damage); read-out: Percentage damage caused to weed species, AMARE
Outline: as §2

Row | Compound | pest or weed control at 1000 g/ha [1] [%] | pest or weed control at 1000 g/ha [2] [%] | pest or weed control at 1000 g/ha (Setaria faberi (SETFA) [3]) [%] | pest or weed control at 1000 g/ha (Solanum nigrum (SOLNI) [4]) [%] | pest or weed control at 1000 g/ha [5] [%] | pest or weed control at 1000 g/ha [6] [%] | pest or weed control at 1000 g/ha [7] [%] | pest or weed control at 1000 g/ha [8] [%] | pest or weed control at 1000 g/ha (Setaria faberi (SETFA) [9]) [%] | pest or weed control at 1000 g/ha (Solanum nigrum (SOLNI) [10]) [%] | pest or weed control at 1000 g/ha [11] [%] | pest or weed control at 1000 g/ha [12] [%]
1 | COC(=O)c1nc(-c2ccc(C(F)(F)F)c(Cl)c2)nc(NCc2ccco2)c1Cl [Compound 235-48, 5-Chloro-2-(3-chloro-4-trifluoromethyl-phenyl)-4-(furan-2-ylmethylamino)-6-methoxycarbonyl-pyrimidine] | 10 | 60 | 10 | 80 | 0 | 80 | 0 | 20 | 0 | 20 | 0 | 10
2 | COC(=O)c1nc(-c2ccc(OC)cc2OC)nc(NCc2ccco2)c1Cl [Compound 252-48, 5-Chloro-2-(2,4-dimethoxyphenyl)-4-(furan-2-yl-methyl-amino)-6-methoxy-carbonylpyrimidine] | 0 | 30 | 0 | 20 | 0 | 30 | 0 | 0 | 20 | 0 | 0 | 0
3 | COC(=O)c1nc(C2CC2)nc(N(Cc2ccccc2)C[Si](C)(C)C)c1Cl [Compound 150-60, 5-Chloro-2-cyclopropyl-6-methoxycarbonyl-4-(N-phenylmethyl-N-trimethylsilylmethyl-amino)pyrimidine] | 40 | 90 | 70 | 90 | 60 | 100 | 20 | 90 | 20 | 70 | 40 | 80
4 | C=CCN(Cc1ccc(F)cc1)c1nc(C2CC2)nc(C(=O)OC)c1Cl [Compound 151-66, 5-Chloro-2-cyclopropyl-4-[N-(4-fluorophenylmethyl)-N-prop-2-en-1-yl-amino]-6-methoxy-carbonylpyrimidine] | 20 | 70 | 50 | 80 | 30 | 80 | 0 | 50 | 0 | 0 | 0 | 40
